Consider three molecules from patent US20070155693A1, “Inhibitor of cancer bone metastasis” (ORIENT CANCER THERAPY CO., LTD., priority 2004, published 2007).

One experiment deals with prostate cancer. Description: Clinical cases: prostate cancer markers PSA and PAP. In kind it is in vivo, human. The note with it: Example 1, prostate cancer and ischial bone metastasis; Iressa added to NITC. As for the experimental part:
Abbreviations expressed were based on each general expression way.
(§1) A prostate cancer patient having been diagnosed as ischial bone metastasis received the hormone therapy of Casodex and Leuplin. NITC was started on Jun. 11, 200X. […] On Sep. 18, 200X, severe low back pain and left hip joint and hip (ischial bone metastasis) pains were appeared, so morphine (MS Contin 40 mg/day) was used. From Oct. 29, 200X, Iressa 1T (250 mg/day) was started to use. Two months after the administration of Iressa, as the pains in low back, left hip joint and hip were alleviated, the administration of MS Contin decreased to 20 mg/day.
(§2) From Jul. […] From Aug. 17, 200X, Iressa 1T (250 mg/day) was initiated. […] Currently, Iressa is only temporarily and orally administered as a painkiller, when pain appears.

The test system of experiment [1] is non-small cell lung cancer and prostate cancer. Conditions: clinical data; cited from earlier work.
Another experiment deals with bone metastasis. The experiment is described as follows: Clinical cases: bone metastasis marker 1CTP. In kind it is in vivo, human. The note with it: Example 1, prostate cancer and ischial bone metastasis; Iressa added to NITC. From the text:
Effects of inhibiting bone metastasis were confirmed by the variation of 1CTP which is a bone metastasis marker. 1CTP has been practically used as a specific marker for bone resorption and there is, for example, 1CTP kit supplied by Orion (Clin. Chem. 39: 635-640, 1993). The kit uses a decalcified human thigh bone, which is degraded and purified in vitro by a purified bacterial collagenase, as an antigen (1CTP), to immunize a rabbit to produce an antibody, and the antigen is labeled with ^125I to make competitive radioimmunoassay (RIA). Its measuring sensitivity is 0.5 ng/ml or less and the measurement is possible to at least 50 ng/ml. Further, the mean value in blood level of 287 cases from 25-year old to 72-year old is 3.00±1.12 ng/ml (average±S.D.). 1CTP in blood has shown abnormal values in various metabolic bone diseases such as bone metastasis and hyperparathyroidism by now, and further has also been recognized to correlate with therapeutic process. The kit to measure 1CTP is a known clinical diagnosis one, and there is a RIA kit, pyridinoline 1CTP “Chugai” manufactured by Chugai Diagnostics Science Co., Ltd. Specifically, it is a radioimmunoassay reagent using ^125I as a label. However, other well known reagents such as enzyme immunoassay reagent using an enzyme labeling and fluorescence immunoassay reagent using a fluorescent substance can of course be applied. […]

Another experiment has as its system bone metastasis pain. Description: Clinical cases: pain from bone metastasis. The note with it: for generalized bone pain: morphine 240 mg/day, Leuplin hormone therapy, Iressa 250 mg/day. The experiment is classed as in vivo, human. As for the experimental part:
as §1, §2

For the molecule `COc1cc2ncnc(Nc3ccc(F)c(Cl)c3)c2cc1OCCCN1CCOCC1` [Iressa], the “PSA and PAP (prostate cancer markers)” value with prostate cancer is “kept decreasing significantly”. Further, the “CR (complete remission)” value in experiment [1] is “almost nothing”. Besides, in the experiment on bone metastasis, the “1CTP (bone metastasis marker)” value is “the increase of 1CTP also terminated, showing a tendency to decrease”. For the same molecule, the “pains in low back, left hip joint and hip” value in the experiment with bone metastasis pain (Example 1, two months after the administration of Iressa 250 mg/day) is “alleviated”. Moreover, in the experiment with bone metastasis pain (Example 2), the “effect as painkiller compared with morphine” value was “stronger effect than morphine” and the generalized bone pain result was “alleviated significantly”. Also, the “pains after dose reduction” value in the experiment on bone metastasis pain (Example 2, Iressa decreased to 250 mg/alternate day and 250 mg/three days) is “pains disappeared”.
As to `CCNC(=O)[C@@H]1CCCN1C(=O)[C@H](CCCNC(=N)N)NC(=O)[C@H](CC(C)C)NC(=O)[C@@H](CC(C)C)NC(=O)[C@H](Cc1ccc(O)cc1)NC(=O)[C@H](CO)NC(=O)[C@H](Cc1c[nH]c2ccccc12)NC(=O)[C@H](Cc1c[nH]cn1)NC(=O)[C@@H]1CCC(=O)N1` [Leuplin], in the experiment with bone metastasis pain (Example 2), the generalized bone pain result is reported as “the pain was not weakened”.
On the same count and under the same terms, the result for `CN1CC[C@]23c4c5ccc(O)c4O[C@H]2[C@@H](O)C=C[C@H]3[C@H]1C5` [morphine] reads “could not alleviate the pain”.
